Measurements published in US20100212036A1, “SELECTIVE INHIBITION OF HISTONE DEACETYLASES 1 AND 2 AS A TREATMENT FOR CARDIAC HYPERTROPHY” (priority 2008, published 2010).

What was measured:
cardiomyocytes = settings: treatment of cardiomyocytes with HDAC inhibitors; cited from earlier work
PPARα-responsive genes = assay: Real-time RT-PCR of PPARα target genes in hearts of wild-type and HDAC3cKO mice after Wy14,643; assay type: in vivo; settings: 50 mg/kg single intraperitoneal injection
Experimental: FIGS. 5A-E. Aberrant expression of cardiac metabolism genes from cardiac deletion of HDAC3. (FIG. 5A) Microarray analysis was performed at 5 weeks and gene ontology analysis was performed with PANTHER. […] (FIG. 5B) PPAR-regulated mitochondrial uncoupling genes are increased in HDAC3cKO mice. […] (FIG. 5E) Glucose metabolism is decreased in HDAC3cKO hearts. For (FIGS. 5B-E), real-time RT-PCR was performed from LV RNA of 6-week-old wild-type and HDAC3cKO mice in absence or presence of Wy14,643. Transcript levels were normalized to 18S Ribosomal RNA. KO, HDAC3cKO. Error bars represent standard deviation.
RT-PCR and microarray. For all gene expression analyses from wild-type and HDAC3cKO mice, 4 wild-type and 4 HDAC3cKO hearts were isolated and analyzed. Total RNA was purified using TRIzol reagent according to manufacturer's instructions. For RT-PCR, total RNA was used for reverse transcriptase using random hexamer primers. Primer sequences are available upon request. Quantitative real time PCR was performed using Taqman probes purchased from ABI. For microarray, RNA was extracted from either 3 wild-type or HDAC3cKO hearts and subsequently pooled prior to analysis. Microarray analysis was performed using the Mouse Genome 430 2.0 Array (Affymetrix). All heart RNA was from ventricle tissue only. Microarray analysis was performed by the UT Southwestern Microarray Core Facility using the Mouse Genome 430 2.0 Array (Affymetrix) as described (Davis et al., 2006)
Animal studies. For fasting studies, male HDAC3cKO and wild-type littermates were fasted for 24 hrs. After 24 hrs, mice were sacrificed, hearts extracted, and prepared for Oil Red O staining. Control mice were allowed standard chow ad libitum. Wy14,643 (Biomol) (50 mg/kg body weight) in 50% DMSO/saline was administered as a single intraperitoneal injection. Control littermates were administered vehicle and hearts were extracted 8 hrs after injection. All animal studies were approved by the IACUC of the University of Texas Southwestern Medical Center.

HDAC3 = HDAC3 expression in settings of hypertrophy and failure; assay type: in vivo; settings: following infusion; data not shown
[1] = hearts 8 hrs after injection, vs baseline
[2] = HDAC3cKO mice, LV RNA, hearts extracted 8 hrs after injection, vs baseline

CC(/C=C/C(=O)NO)=C\[C@@H](C)C(=O)c1ccc(N(C)C)cc1 [TSA]
activation of the fetal gene program (cardiomyocytes): dose-dependentle block activation | hypertrophic response (cardiomyocytes): block the hypertrophic response

CCCC(CCC)C(=O)O [VPA]
activation of the fetal gene program (cardiomyocytes): dose-dependentle block activation | hypertrophic response (cardiomyocytes): block the hypertrophic response

Cc1cccc(Nc2cc(Cl)nc(SCC(=O)O)n2)c1C [Wy14,643]
CD36 transcript level (PPARα-responsive genes; [1]): up-regulated | FACS (Acsl1) transcript level (PPARα-responsive genes; [1]): up-regulated | FATP (Slc27a1) transcript level (PPARα-responsive genes; [1]): up-regulated | ACOX (acyl-CoA oxidase 1) expression (PPARα-responsive genes; HDAC3cKO hearts): further up-regulated | GLUT4 expression (PPARα-responsive genes; HDAC3cKO mice): further decreased | PDK4 expression (PPARα-responsive genes; HDAC3cKO mice): further elevated | UCP2 transcript level (PPARα-responsive genes; [2]): induction was increased | UCP3 transcript level (PPARα-responsive genes; [2]): induction was increased | mCPT-1 transcript levels (PPARα-responsive genes; wild-type or HDAC3cKO hearts): had no effect

CC(C)NCC(O)c1ccc(O)c(O)c1 (stereo not drawn) [isoproterenol]
HDAC3 expression levels (HDAC3): decreased

angiotensin
HDAC3 expression levels (HDAC3): not significantly altered
